Molecules are shown by their SMILES.

A short description of the data set: gradient 5% acetonitrile 3 min, to 50% in 2 min, to 85% in 15 min, held 3 min, 100 µL/min. Particulars: column: Zorbax Extend-C18 2.1 x 50 mm; eluents: water / acetonitrile, 0.1% formic acid. In short, it runs like this: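 In both positive and negative ionization mode, a quadrupole time-of-flight mass spectrometer coupled to HPLC analyzed pure standards run in mixtures of ~100 molecules. The Zorbax Extend-C18 column (2.1 × 50 mm, 1.8 μm) was operated at 100 μL/min with water and acetonitrile, each containing 0.1% formic acid. The dead volume was 40 μL and the dwell volume 900 μL. Retention time came from adduct peaks that were computationally picked and individually inspected by hand.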
`CCOc1ccc(-n2c(SCC(=O)Nc3ncn[nH]3)nc3ccsc3c2=O)cc1` had an RP-LC retention time of 692 s.

Take `Cc1nc2c(C(=O)NCCN(C)C)cnn2c(C)c1Cc1ccccc1Cl`: the RP-LC retention time turned out to be 674 s.

On to `O=C(NC1CCCCCC1)c1nc(N2CCCC2)c2ccccc2n1`, for which the RP-LC retention time is 759 s.

The compound `CCOC(=O)c1nc2ccccc2nc1N1CCN(c2ccccn2)CC1` yielded an RP-LC retention time of 666 s.

The compound `CNC(=O)[C@@H]1CN(C(=O)c2cccc(Br)c2)C[C@H]1CO` came in with an RP-LC retention time of 586 s.

Regarding `Cc1nc(CCNC(=O)C2CCN(C(=O)c3ccc(F)cc3)CC2)cs1`, the RP-LC retention time worked out at 826 s.

For `Cn1nccc1-c1cccc(-c2noc(-c3ccc(F)cc3F)n2)c1`, the RP-LC retention time came out at 1120 s.

For `Cc1ccc(C)c(NC(=O)Cc2nnc(-c3cnccn3)o2)c1`, the RP-LC retention time stood at 736 s.

Turning to `O=C(O)c1cnc(N2CCOCC2)nc1-c1cccc(Cl)c1`, the RP-LC retention time was 770 s.

Compound `Cn1nc(-c2nc(-c3ccccc3F)no2)c2c1CCN(C(=O)C1CCCO1)C2` (centres undefined) displayed an RP-LC retention time of 770 s.

Take `Cc1nc(-c2ccc(N3CCN(C(=O)c4nccc5ccccc45)CC3)nc2)sc1C`: the RP-LC retention time came out at 867 s.

In the case of `O=C(CCC1CCCN(C(=O)Nc2ccc(Cl)cc2)C1)NCc1cccc(Cl)c1` (centres undefined), the RP-LC retention time was 960 s.

Turning to `CN(Cc1cccnc1Oc1ccccc1)C(=O)c1cccn1C`, the RP-LC retention time turned out to be 781 s.

`O=C(NCc1ccccc1F)C1CCN(c2cncnc2N2CCCC2)CC1`: the RP-LC retention time turned out to be 641 s.

In the case of `CCCNC(=O)c1cc(-c2ccc(F)cc2)cn1C`, the RP-LC retention time turned out to be 930 s.

Compound `COc1ccc([N+](=O)[O-])cc1NS(=O)(=O)c1ccc(C)cc1` showed an RP-LC retention time of 961 s.

Compound `COc1ccc(NC(=O)Cc2c(C)nn(-c3nc(-c4ccc(Cl)cc4)cs3)c2C)cc1` gave an RP-LC retention time of 1210 s.

As to `CCOC(=O)c1ccc(NC(=O)Cn2nc3n(c2=O)CCCCC3)cc1`, the RP-LC retention time was determined as 685 s.

Compound `COc1ccc(OC)c(NC(=O)Cc2csc3nc(-c4ccc(OC)c(OC)c4)cn23)c1` registered an RP-LC retention time of 738 s.

`COc1c(Sc2ccc([N+](=O)[O-])cc2)c(C)nn1-c1ccccc1` showed an RP-LC retention time of 1130 s.

Compound `COc1ccc(NS(=O)(=O)c2ccc3c(c2)C(=O)N(C)c2ncccc2O3)cc1Cl` showed an RP-LC retention time of 918 s.

Compound `CN1CCN(c2nc(C(=O)NC3CCCC3)cs2)CC1` yielded an RP-LC retention time of 585 s.

For the compound `O=C(NC1CC1)C1CCN(S(=O)(=O)Cc2ccc(Cl)cc2)CC1`, the RP-LC retention time amounted to 735 s.

`CCN(CC)C(=O)c1ccc2c(c1)N(CC(=O)N1CCCCC1)C(=O)C1CCCCN21` (centres undefined): the RP-LC retention time came to 795 s.

In turn, `Cc1csc(-c2cc(S(=O)(=O)N3CCCCC3)c(C)n2C)n1` had an RP-LC retention time of 1040 s.

For the compound `CCc1cccc(NC(=O)c2cn(CC)nc2S(=O)(=O)N2CCSCC2)c1`, the RP-LC retention time worked out at 1080 s.

As to `CCOc1ncccc1C(=O)Nc1cccc(-c2csc3nc(C)cc(=O)n23)c1`, the RP-LC retention time amounted to 774 s.

With `CC(C)OCCCNC(=O)CN1c2ccc(Br)cc2-c2ccccc2S1(=O)=O`, the RP-LC retention time turned out to be 961 s.

For the compound `Cc1cc(N2CCCC2)n2nc(CN3CCC4(CC3)OCCO4)nc2n1`, the RP-LC retention time came to 572 s.

In turn, `O=c1c2ccccc2c2ccccc2c(=O)n1Cc1ccco1` showed an RP-LC retention time of 966 s.

With `CC(CCNC(=O)CN1C(=O)CCn2nc(-c3cn(C)c4ccccc34)cc21)N1CCCC1` (centres undefined), the RP-LC retention time stood at 616 s.

The compound `CCn1c(=O)c(NCc2cc(F)ccc2F)nc2ccncc21` registered an RP-LC retention time of 568 s.

As to `Cc1ccc(CNc2ccc(-c3nc(-c4ccc(F)cc4)no3)cn2)cc1`, the RP-LC retention time came out at 1250 s.

`COc1cc(CN(C)C2CCc3nnc(C4CCOCC4)n3CC2)cc(OC)c1` (centres undefined) displayed an RP-LC retention time of 544 s.
